From patent US4345938A, “Herbicidal 2-haloacetanilides” (Monsanto Company, priority 1980, dated 1982)
Like-named read-outs stand apart in the source and are kept apart here.

Columns and labels:
Rice [1] = assay: Field transplant rice test, applied 9 DAT, rice injury; assay type: in vivo; conditions: Oryza sativa, 216 h, read-out: Percent Inhibition, Rice; for inhibition at 375 g/ha: 0.375 Kg/Ha; for inhibition at 750 g/ha: 0.75 Kg/Ha; for inhibition at 1500 g/ha: 1.5 Kg/Ha; for inhibition at 3000 g/ha: 3.0 Kg/Ha
Outline: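 Field transplant rice; herbicides applied as granules (2.5% by weight active, 5.0% for one prior-art comparator) at 9 days after transplant. Rates from 3.0 kg/ha (2.67 lb/A) down to 0.375 kg/ha (0.34 lb/A). Crop injury observed weekly from 3 to 7 weeks after transplant.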

Echinochloa crus-galli = assay: Field transplant rice test, applied 9 DAT, EC; assay type: in vivo; conditions: for inhibition at 375 g/ha / inhibition at 750 g/ha / inhibition at 1500 g/ha / inhibition at 3000 g/ha: Echinochloa crus-galli, 216 h, read-out: Percent Inhibition, EC; for inhibition at 375 g/ha: 0.375 Kg/Ha; for inhibition at 750 g/ha: 0.75 Kg/Ha; for inhibition at 1500 g/ha: 1.5 Kg/Ha; for inhibition at 3000 g/ha: 3.0 Kg/Ha
Outline: (§1)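 Field test in transplanted rice, herbicides applied as granules (2.5% or 5.0% w/w active) 9 days after transplant at 3.0 down to 0.375 kg/ha. Weed control observed weekly from 3 to 7 weeks after transplant.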

Eleocharis kuroguwai [2] = assay: Greenhouse transplant rice test, EK; assay type: in vivo; conditions: about 3 WAT, read-out: Percent Inhibition, EK
Text: (§2) The test procedure used in this greenhouse test is as follows: Ray silt loam top soil containing about 0.05% by weight of krillium and sifted through a […] screen is fumigated about 5-10 days prior to use. Pots are then filled with said Ray silt loam soil to a level to allow for a 1 in. (2.54 cm) flooding depth. Rice plants (Bluebelle) of 2 to 3 weeks age are transplanted to the pots and bulbs or seeds of the test weeds also planted in the pots. The pots are then flooded and the test chemical applied to the surface of the flood water. The flood water is reduced to allow for germination of the Echinochloa crus-galli (barnyardgrass) seed and subsequently reflooded and maintained in that condition. Observations of percent inhibition using a scale of 0-100% are made about 3 weeks after transplant (WAT).
(§3) The test data in Table III for all compounds was obtained under identical test conditions. The weeds used in the tests herein have the following abbreviations in the tables: Echinochloa crus-galli (EC), Monochloria vaginalis (MV), Cyperus Serotinus (CS), Eleocharis Kuroguwai (EK) and Sagittaria trifolia (ST).

Rice [3] = assay: Greenhouse transplant rice test, rice injury; assay type: in vivo, Rice (Bluebelle); conditions: Oryza sativa, about 3 WAT, read-out: Percent Inhibition, Rice
Text: as §2, §3

Eleocharis kuroguwai [4] = assay: Field transplant rice test, applied 0 DAT, EK; assay type: in vivo; conditions: 0 h, read-out: Percent Inhibition, EK; for inhibition at 375 g/ha: 0.375 Kg/Ha; for inhibition at 750 g/ha: 0.75 Kg/Ha; for inhibition at 1500 g/ha: 1.5 Kg/Ha; for inhibition at 3000 g/ha: 3.0 Kg/Ha
Outline: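 Field test in transplanted rice, herbicide applied as granules (2.5% or 5.0% w/w active) at transplanting (0 DAT). Rates from 3.0 kg/ha down to 0.375 kg/ha. Weed control observed weekly from 2 to 6 weeks after transplant, reported at 2, 4 and 6 WAT.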

Monochoria vaginalis = assay: Field transplant rice test, applied 9 DAT, MV; assay type: in vivo; conditions: for inhibition at 375 g/ha / inhibition at 750 g/ha / inhibition at 1500 g/ha / inhibition at 3000 g/ha: Pontederia vaginalis, 216 h, read-out: Percent Inhibition, MV; for inhibition at 375 g/ha: 0.375 Kg/Ha; for inhibition at 750 g/ha: 0.75 Kg/Ha; for inhibition at 1500 g/ha: 1.5 Kg/Ha; for inhibition at 3000 g/ha: 3.0 Kg/Ha
Outline: as §1

Cyperus serotinus = assay: Field transplant rice test, applied 9 DAT, CS; assay type: in vivo; conditions: for inhibition at 375 g/ha / inhibition at 750 g/ha / inhibition at 1500 g/ha / inhibition at 3000 g/ha: Cyperus serotinus, 216 h, read-out: Percent Inhibition, CS; for inhibition at 375 g/ha: 0.375 Kg/Ha; for inhibition at 750 g/ha: 0.75 Kg/Ha; for inhibition at 1500 g/ha: 1.5 Kg/Ha; for inhibition at 3000 g/ha: 3.0 Kg/Ha
Outline: as §1

CCCCOCN(C(=O)CCl)c1c(CC)cccc1CC [Compound A, 2',6'-diethyl-N-(n-butoxymethyl)-2-chloroacetanilide]
inhibition at 375 g/ha (Rice [1]; 3 WAT): 10% | inhibition at 375 g/ha (Rice [1]; 5 WAT): 8% | inhibition at 375 g/ha (Rice [1]; 7 WAT): 8% | inhibition at 750 g/ha (Rice [1]; 3 WAT): 13% | inhibition at 750 g/ha (Rice [1]; 5 WAT): 3% | inhibition at 750 g/ha (Rice [1]; 7 WAT): 7% | inhibition at 1500 g/ha (Rice [1]; 3 WAT): 12% | inhibition at 1500 g/ha (Rice [1]; 5 WAT): 7% | inhibition at 1500 g/ha (Rice [1]; 7 WAT): 5% | inhibition at 3000 g/ha (Rice [1]; 3 WAT): 12% | inhibition at 3000 g/ha (Rice [1]; 5 WAT): 7% | inhibition at 3000 g/ha (Rice [1]; 7 WAT): 5% | inhibition at 375 g/ha (Echinochloa crus-galli; 3 WAT): 23% | inhibition at 375 g/ha (Echinochloa crus-galli; 5 WAT): 20% | inhibition at 375 g/ha (Echinochloa crus-galli; 7 WAT): 17% | inhibition at 750 g/ha (Echinochloa crus-galli; 3 WAT): 80% | inhibition at 750 g/ha (Echinochloa crus-galli; 5 WAT): 75% | inhibition at 750 g/ha (Echinochloa crus-galli; 7 WAT): 70% | inhibition at 1500 g/ha (Echinochloa crus-galli; 3 WAT): 88% | inhibition at 1500 g/ha (Echinochloa crus-galli; 5 WAT): 90% | inhibition at 1500 g/ha (Echinochloa crus-galli; 7 WAT): 85% | inhibition at 3000 g/ha (Echinochloa crus-galli; 3 WAT): 93% | inhibition at 3000 g/ha (Echinochloa crus-galli; 5 WAT): 93% | inhibition at 3000 g/ha (Echinochloa crus-galli; 7 WAT): 90% | selectivity factor (GR15/GR85), EC in transplant rice (Echinochloa crus-galli; between 3 WAT and 7 WAT): 2 | inhibition at 280 g/ha (Eleocharis kuroguwai [2]; 0.28 Kg/Ha): 50% | inhibition at 560 g/ha (Eleocharis kuroguwai [2]; 0.56 Kg/Ha): 100% | inhibition at 1120 g/ha (Eleocharis kuroguwai [2]; 1.12 Kg/Ha): 100% | inhibition at 2240 g/ha (Eleocharis kuroguwai [2]; 2.24 Kg/Ha): 100% | inhibition at 280 g/ha (Rice [3]; 0.28 Kg/Ha): 5% | inhibition at 560 g/ha (Rice [3]; 0.56 Kg/Ha): 10% | inhibition at 1120 g/ha (Rice [3]; 1.12 Kg/Ha): 10% | inhibition at 2240 g/ha (Rice [3]; 2.24 Kg/Ha): 15% | inhibition at 375 g/ha (Eleocharis kuroguwai [4]; 2 WAT): 65% | inhibition at 375 g/ha (Eleocharis kuroguwai [4]; 4 WAT): 33% | inhibition at 375 g/ha (Eleocharis kuroguwai [4]; 6 WAT): 10% | inhibition at 750 g/ha (Eleocharis kuroguwai [4]; 2 WAT): 45% | inhibition at 750 g/ha (Eleocharis kuroguwai [4]; 4 WAT): 22% | inhibition at 750 g/ha (Eleocharis kuroguwai [4]; 6 WAT): 0% | inhibition at 1500 g/ha (Eleocharis kuroguwai [4]; 2 WAT): 83% | inhibition at 1500 g/ha (Eleocharis kuroguwai [4]; 4 WAT): 78% | inhibition at 1500 g/ha (Eleocharis kuroguwai [4]; 6 WAT): 28% | inhibition at 3000 g/ha (Eleocharis kuroguwai [4]; 2 WAT): 90% | inhibition at 3000 g/ha (Eleocharis kuroguwai [4]; 4 WAT): 88% | inhibition at 3000 g/ha (Eleocharis kuroguwai [4]; 6 WAT): 68% | inhibition at 375 g/ha (Monochoria vaginalis; 3 WAT): 90% | inhibition at 375 g/ha (Monochoria vaginalis; 5 WAT): 98% | inhibition at 375 g/ha (Monochoria vaginalis; 7 WAT): 80% | inhibition at 750 g/ha (Monochoria vaginalis; 3 WAT): 92% | inhibition at 750 g/ha (Monochoria vaginalis; 5 WAT): 87% | inhibition at 750 g/ha (Monochoria vaginalis; 7 WAT): 60% | inhibition at 1500 g/ha (Monochoria vaginalis; 3 WAT): 100% | inhibition at 1500 g/ha (Monochoria vaginalis; 5 WAT): 100% | inhibition at 1500 g/ha (Monochoria vaginalis; 7 WAT): 100% | inhibition at 3000 g/ha (Monochoria vaginalis; 3 WAT): 100% | inhibition at 3000 g/ha (Monochoria vaginalis; 5 WAT): 100% | inhibition at 3000 g/ha (Monochoria vaginalis; 7 WAT): 100% | selectivity factor (GR15/GR85), MV in transplant rice (Monochoria vaginalis; between 3 WAT and 7 WAT): 8 | inhibition at 375 g/ha (Cyperus serotinus; 3 WAT): 80% | inhibition at 375 g/ha (Cyperus serotinus; 5 WAT): 33% | inhibition at 375 g/ha (Cyperus serotinus; 7 WAT): 67% | inhibition at 750 g/ha (Cyperus serotinus; 3 WAT): 70% | inhibition at 750 g/ha (Cyperus serotinus; 5 WAT): 50% | inhibition at 750 g/ha (Cyperus serotinus; 7 WAT): 38% | inhibition at 1500 g/ha (Cyperus serotinus; 3 WAT): 100% | inhibition at 1500 g/ha (Cyperus serotinus; 5 WAT): 100% | inhibition at 1500 g/ha (Cyperus serotinus; 7 WAT): 100% | inhibition at 3000 g/ha (Cyperus serotinus; 3 WAT): 88% | inhibition at 3000 g/ha (Cyperus serotinus; 5 WAT): 100% | inhibition at 3000 g/ha (Cyperus serotinus; 7 WAT): 100% | selectivity factor (GR15/GR85), CS in transplant rice (Cyperus serotinus; between 3 WAT and 7 WAT): 2
